The experiment relates to HBV. Put plainly: Inhibition of HBV replication dot-blot assay in HBV-producing hepatoma cell line. Format: cell-based. Conditions: Hepatitis B virus, 144 h; activity in Dot-Blot assay; HepG2-2.2.15 cells; reduction in HBV DNA levels, six days. The procedure: Compounds active in the HBV assembly assay are tested for their activity and toxicity in cellular assay. In the first anti-viral assay, the ability of compounds to inhibit HBV replication in an HBV-producing hepatoma cell line using the dot-blot method is evaluated.
(§1) Briefly, confluent monolayers of HepG2-2.2.15 cells are incubated with complete medium containing various concentrations of a test compound. Three days later, the culture medium is replaced with fresh medium containing the appropriately diluted test compound. Six days following the initial administration of the test compound, the cell culture supernatant is collected, and cell lysis is performed. The samples are applied onto Nylos membranes and DNA is immobilized to the membrane by UV cross-linking. After pre-hybridization, the HBV probe is added and the hybridization is performed overnight. The membranes are exposed to the KODAK films; antiviral activity is calculated from the reduction in HBV DNA levels (EC50). The EC50 for antiviral activity is calculated from the dose response curves of active compounds. Assay performance over time is monitored by the use of the standard positive control compounds ETV, BAY 41-4109, and HAP-1.
Selected compounds are tested for their activity and toxicity in cellular assay. In the first anti-viral assay, the ability of compounds to inhibit HBV replication in an HBV-producing hepatoma cell line using the dot-blot method is evaluated.
as §1, with “Confluent monolayers” for “Briefly, confluent monolayers”, “lysis was” for “lysis is”

`O=C(Nc1cc(F)c(F)c(F)c1)c1ccc(F)c(SCCO)c1` [Compound 7, 4-Fluoro-3-((2-hydroxyethyl)thio)-N-(3,4,5-trifluorophenyl)benzamide]: the EC50 was < 10 µM.
Under `Cc1cc(NC(=O)c2ccc(F)c(SC3CCCCC3)c2)ccc1F` [Compound 8, 3-(Cyclohexylthio)-4-fluoro-N-(4-fluoro-3-methylphenyl)benzamide] stands < 10 µM; under `Cc1cc(NC(=O)c2ccc(F)c(SC3CCCC3)c2)ccc1F` [Compound 9, 3-(Cyclopentylthio)-4-fluoro-N-(4-fluoro-3-methylphenyl)benzamide], < 10 µM; under `O=C(Nc1cc(F)c(F)c(F)c1)c1ccc(F)c(SCCCO)c1` [Compound 17, 4-Fluoro-3-((3-hydroxypropyl)thio)-N-(3,4,5-trifluorophenyl)benzamide], < 10 µM.
Under `CC(C)(O)CCSc1cc(C(=O)Nc2cc(F)c(F)c(F)c2)ccc1F` [Compound 19, 4-Fluoro-3-((3-hydroxy-3-methylbutyl)thio)-N-(3,4,5-trifluorophenyl)benzamide] stands < 10 µM; under `O=C(Nc1cc(F)c(F)c(F)c1)c1ccc(F)c(SCCCCO)c1` [Compound 23, 4-Fluoro-3-((4-hydroxybutyl)thio)-N-(3,4,5-trifluorophenyl)benzamide], < 10 µM.
As for `O=C(Nc1ccc(F)c(Cl)c1)c1ccc(F)c(SCCO)c1` [Compound 26, N-(3-Chloro-4-fluorophenyl)-4-fluoro-3-((2-hydroxyethyl)thio)benzamide], the figure is < 10 µM; as for `O=C(Nc1ccc(F)c(Cl)c1)c1ccc(F)c(SCCCO)c1` [Compound 27, N-(3-Chloro-4-fluorophenyl)-4-fluoro-3-((3-hydroxypropyl)thio)benzamide], < 10 µM; as for `O=C(Nc1ccc(F)c(Cl)c1)c1ccc(F)c(SCC2CCOCC2)c1` [Compound 47, N-(3-Chloro-4-fluorophenyl)-4-fluoro-3-(((tetrahydro-2H-pyran-4-yl)methyl)thio)benzamide], < 10 µM.
As for `O=C(Nc1cc(F)c(F)c(F)c1)c1c[nH]c(=O)c(SC2CCCC2)c1` [Compound 48, 5-(Cyclopentylthio)-6-oxo-N-(3,4,5-trifluorophenyl)-1,6-dihydropyridine-3-carboxamide], the concentration for a half-maximal effect (EC50) is < 10 µM.
As for `CC(C)(Sc1cc(C(=O)Nc2ccc(F)c(Cl)c2)ccc1F)C(=O)O` [Compound 51, 2-((5-((3-Chloro-4-fluorophenyl)carbamoyl)-2-fluorophenyl)thio)-2-methylpropanoic acid], the figure is < 10 µM; as for `O=C(Nc1ccc(F)c(Cl)c1)c1ccc(F)c(SC2CCCCCC2)c1` [Compound 52, N-(3-Chloro-4-fluorophenyl)-3-(cycloheptylthio)-4-fluorobenzamide], < 10 µM; as for `O=C(Nc1ccc(F)c(Cl)c1)c1ccc(F)c(SCC2COC2)c1` [Compound 60, N-(3-Chloro-4-fluorophenyl)-4-fluoro-3-((oxetan-3-ylmethyl)thio)benzamide], < 10 µM.
Under `O=C(Nc1ccc(F)c(Cl)c1)c1ccc(F)c(SC2COC2)c1` [Compound 65, N-(3-Chloro-4-fluorophenyl)-4-fluoro-3-(oxetan-3-ylthio)benzamide] stands < 10 µM; under `COc1ccc(C(=O)Nc2ccc(F)c(Cl)c2)cc1SC1CCCCC1` [Compound 69, N-(3-Chloro-4-fluorophenyl)-3-(cyclohexylthio)-4-methoxybenzamide], < 10 µM.
Under `COc1ccc(C(=O)Nc2ccc(F)c(F)c2)cc1SC1CCCCC1` [Compound 80, 3-(Cyclohexylthio)-N-(3,4-difluorophenyl)-4-methoxybenzamide] stands < 10 µM; under `O=C(Nc1cc(F)c(F)c(F)c1)c1ccnc(NS(=O)(=O)C2CC2)c1` [Compound 127, 2-(Cyclopropanesulfonamido)-N-(3,4,5-trifluorophenyl)isonicotinamide], < 10 µM; under `O=C(Nc1ccc(F)c(F)c1)c1ccnc(NS(=O)(=O)C2CC2)c1` [Compound 128, 2-(Cyclopropanesulfonamido)-N-(3,4-difluorophenyl)isonicotinamide], < 10 µM.
In the case of `CC1(S(=O)(=O)Nc2cc(C(=O)Nc3ccc(F)c(Cl)c3)ccn2)CC1` [Compound 130, N-(3-Chloro-4-fluorophenyl)-2-(1-methylcyclopropanesulfonamido)isonicotinamide], the 50% effective concentration (EC50) was < 10 µM.
Under `CCS(=O)(=O)Nc1cc(C(=O)Nc2ccc(F)c(Cl)c2)ccn1` [Compound 131] stands < 10 µM; under `CCCS(=O)(=O)Nc1cc(C(=O)Nc2ccc(F)c(Cl)c2)ccn1` [Compound 133, N-(3-Chloro-4-fluorophenyl)-2-(propylsulfonamido)isonicotinamide], < 10 µM.
On to `O=C(Nc1ccc(F)c(Cl)c1)c1ccnc(NS(=O)(=O)C2CCCCC2)c1` [Compound 134, N-(3-Chloro-4-fluorophenyl)-2-(cyclohexanesulfonamido)isonicotinamide], for which the half-maximal effective concentration (EC50) is < 10 µM.
As for `O=C(Nc1ccc(F)c(Cl)c1)c1cc(F)nc(NS(=O)(=O)C2CC2)c1` [Compound 137, N-(3-Chloro-4-fluorophenyl)-2-(cyclopropanesulfonamido)-6-fluoroisonicotinamide], the figure is < 10 µM; as for `O=C(Nc1ccc(F)c(Cl)c1)c1cc(F)nc(NS(=O)(=O)c2ccccc2)c1` [Compound 138, N-(3-Chloro-4-fluorophenyl)-2-fluoro-6-(phenylsulfonamido)isonicotinamide], < 10 µM.
`O=C(Nc1ccc(F)c(Cl)c1)c1ccnc(NS(=O)(=O)Cc2ccccc2)c1` [Compound 139, N-(3-Chloro-4-fluorophenyl)-2-(phenylmethylsulfonamido)isonicotinamide]: the EC50 was < 10 µM.
Under `O=C(Nc1ccc(F)c(Cl)c1)c1ccnc(NS(=O)(=O)c2cccs2)c1` [Compound 141, N-(3-Chloro-4-nuorophenyl)-2-(thiophene-2-sulfonamido)isonicotinamide] stands < 10 µM; under `O=C(Nc1ccc(F)c(Cl)c1)c1cc(NS(=O)(=O)C2CC2)ncc1F` [Compound 144, N-(3-Chloro-4-fluorophenyl)-2-(cyclopropanesulfonamido)-5-fluoroisonicotinamide], < 10 µM; under `O=C(Nc1ccc(F)c(Cl)c1)c1cc(NS(=O)(=O)C2CC2)ncc1Cl` [Compound 149, 5-Chloro-N-(3-chloro-4-fluorophenyl)-2-(cyclopropanesulfonamido)isonicotinamide], < 10 µM.
Under `O=C(Nc1ccc(F)c(Cl)c1)c1ccnc(NS(=O)(=O)CC2CCCC2)c1` [Compound 150, N-(3-Chloro-4-fluorophenyl)-2-(cyclopentylmethylsulfonamido)isonicotinamide] stands < 10 µM; under `Cc1ccc(CS(=O)(=O)Nc2cc(C(=O)Nc3ccc(F)c(Cl)c3)ccn2)cc1` [Compound 152, N-(3-Chloro-4-fluorophenyl)-2-(p-tolylmethylsulfonamido)isonicotinamide], < 10 µM.
Under `CC(C)(C)S(=O)(=O)Nc1cc(C(=O)Nc2ccc(F)c(Cl)c2)ccn1` [Compound 154, N-(3-Chloro-4-fluorophenyl)-2-(1,1-dimethylethylsulfonamido)isonicotinamide] stands < 10 µM; under `O=C(Nc1ccc(F)c(Cl)c1)c1ccnc(NS(=O)(=O)CC2(O)CCC2)c1` [Compound 155, N-(3-Chloro-4-fluorophenyl)-2-((1-hydroxycyclobutyl)methylsulfonamido) isonicotinamide], < 10 µM; under `CC(C)(O)CS(=O)(=O)Nc1cc(C(=O)Nc2ccc(F)c(Cl)c2)ccn1` [Compound 156, N-(3-Chloro-4-fluorophenyl)-2-(2-hydroxy-2-methylpropylsulfonamido) isonicotinamide], < 10 µM.
Take `CC(C)S(=O)(=O)Nc1cc(C(=O)Nc2ccc(F)c(Cl)c2)ccn1` [Compound 163, N-(3-Chloro-4-fluorophenyl)-2-(1-methylethylsulfonamido)isonicotinamide]: the EC50 was < 10 µM.
Regarding `CC(C)(C)CS(=O)(=O)Nc1cc(C(=O)Nc2ccc(F)c(Cl)c2)ccn1` [Compound 164, N-(3-Chloro-4-fluorophenyl)-2-(2,2-dimethylpropylsulfonamido)isonicotinamide], the concentration for a half-maximal effect (EC50) was < 10 µM.
As for `CC(C)S(=O)(=O)Nc1cc(C(=O)Nc2ccc(F)c(F)c2)ccn1` [Compound 165, N-(3,4-Difluorophenyl)-2-(1-methylethylsulfonamido)isonicotinamide], the figure is < 10 µM.
As for `COc1ccc(CCS(=O)(=O)Nc2cc(C(=O)Nc3ccc(F)c(Cl)c3)ccn2)cc1` [Compound 173, N-(3-Chloro-4-fluorophenyl)-2-(2-(4-methoxyphenyl)ethylsulfonamido)isonicotinamide], the figure is < 10 µM.

Values taken from EP3227262B1, “SULFIDE ALKYL AND PYRIDYL REVERSE SULFONAMIDE COMPOUNDS FOR HBV TREATMENT” (Novira Therapeutics Inc., priority 2014, dated 2016).
